# Results reported in ChEMBL document CHEMBL1201862, “PubChem BioAssay data set” (2004).
#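 Interpolation was linear, between the two tested concentrations surrounding the appropriate level; five concentrations were tested over 48 hours in 96-well plates. Abbreviation: GI50, concentration required for 50% inhibition of growth.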 Calls of active or inactive are those of the source. Rule as the data show it: active = GI50 up to about 1.1 µM and inactive = higher.
# How the values were obtained:
# Test in all cases: inhibition of tumour cell growth, NCI panel, 48 h
# XF498 = system: XF498
# DMS-273 = system: DMS-273
# A498 = system: A498
# Malme-3M = system: Malme-3M
# SF-539 = system: SF-539
# CCRF-CEM = system: CCRF-CEM
# SF-268 = system: SF-268
# COLO 205 = system: COLO 205
# HCT-116 = system: HCT-116
# OVCAR-5 = system: OVCAR-5
# IGROV-1 = system: IGROV-1
# UO-31 = system: UO-31
# OVCAR-8 = system: OVCAR-8
# A549 = system: A549
# SNB-19 = system: SNB-19
# HOP-62 = system: HOP-62
# NCI-H460 = system: NCI-H460
# SK-OV-3 = system: SK-OV-3
# M14 = system: M14
# TK-10 = system: TK-10
Compound,GI50 (XF498),GI50 (DMS-273),GI50 (A498),GI50 (Malme-3M),GI50 (SF-539),GI50 (CCRF-CEM),GI50 (SF-268),GI50 (COLO 205),GI50 (HCT-116),GI50 (OVCAR-5),GI50 (IGROV-1),GI50 (UO-31),GI50 (OVCAR-8),GI50 (A549),GI50 (SNB-19),GI50 (HOP-62),GI50 (NCI-H460),GI50 (SK-OV-3),GI50 (M14),GI50 (TK-10)
O=C1CNC(=O)N1 [HYDANTOIN],> 11.2 µM (inactive),> 1120 µM (inactive),> 1120 µM (inactive),> 1120 µM (inactive),> 1120 µM (inactive),681 µM (inactive),> 1120 µM (inactive),> 1120 µM (inactive),> 1120 µM (inactive),> 1120 µM (inactive),> 1120 µM (inactive),> 1120 µM (inactive),> 1120 µM (inactive),> 1120 µM (inactive),> 1120 µM (inactive),> 1120 µM (inactive),> 1120 µM (inactive),> 1120 µM (inactive),,
O=[PH](O)c1cccs1,> 100 µM (inactive),> 100 µM (inactive),> 100 µM (inactive),,> 100 µM (inactive),> 100 µM (inactive),> 100 µM (inactive),> 100 µM (inactive),> 100 µM (inactive),,> 100 µM (inactive),> 100 µM (inactive),> 100 µM (inactive),> 100 µM (inactive),> 100 µM (inactive),,> 100 µM (inactive),> 100 µM (inactive),> 100 µM (inactive),> 100 µM (inactive)
CC(=O)CC(=O)CCC(=O)O [SUCCINYLACETONE],> 100 µM (inactive),> 100 µM (inactive),,> 100 µM (inactive),> 100 µM (inactive),,> 100 µM (inactive),> 100 µM (inactive),> 100 µM (inactive),> 100 µM (inactive),> 100 µM (inactive),> 100 µM (inactive),> 100 µM (inactive),> 100 µM (inactive),> 100 µM (inactive),,> 100 µM (inactive),> 100 µM (inactive),> 100 µM (inactive),> 100 µM (inactive)
O=C1CCC(c2ccc(Cl)cc2)=NN1c1nsc2ccccc12,,25.6 µM (inactive),,,48.4 µM (inactive),17.7 µM (inactive),38.9 µM (inactive),36.5 µM (inactive),19.7 µM (inactive),51.2 µM (inactive),39.4 µM (inactive),18 µM (inactive),31.8 µM (inactive),37.9 µM (inactive),34.4 µM (inactive),39.2 µM (inactive),29.6 µM (inactive),,> 10 µM (inactive),46.3 µM (inactive)
COc1ccc(-c2c3ccccc3c(-c3ccc(OCCCCCBr)cc3)c3ccccc23)cc1,,> 100 µM (inactive),,> 100 µM (inactive),> 100 µM (inactive),> 100 µM (inactive),> 100 µM (inactive),> 100 µM (inactive),> 100 µM (inactive),> 100 µM (inactive),> 100 µM (inactive),> 100 µM (inactive),> 100 µM (inactive),> 100 µM (inactive),> 100 µM (inactive),> 100 µM (inactive),> 100 µM (inactive),> 100 µM (inactive),> 100 µM (inactive),> 100 µM (inactive)
CO/N=C1/c2sccc2[C@H](NC(=O)C(F)(F)F)[C@@H]1O,,,> 100 µM (inactive),> 100 µM (inactive),> 100 µM (inactive),> 100 µM (inactive),> 100 µM (inactive),> 100 µM (inactive),> 100 µM (inactive),> 100 µM (inactive),> 100 µM (inactive),> 100 µM (inactive),> 100 µM (inactive),> 100 µM (inactive),,> 100 µM (inactive),> 100 µM (inactive),> 100 µM (inactive),> 100 µM (inactive),> 100 µM (inactive)
CCCCCCCCCCCCCCCC(=O)OC1C(O)C(CO)OC(OC)C1NC(=O)N(CCCl)N=O (centres undefined),14.6 µM (inactive),13.1 µM (inactive),,,1.08 µM (active),,2.64 µM (inactive),18.7 µM (inactive),14.3 µM (inactive),16.5 µM (inactive),17.4 µM (inactive),15.2 µM (inactive),17.8 µM (inactive),10.3 µM (inactive),10.4 µM (inactive),15.4 µM (inactive),3.78 µM (inactive),,18.4 µM (inactive),15.5 µM (inactive)
